For 3 compounds, Ki results are on record in BindingDB's records for doi:10.1124/jpet.104.078303 (Abbott Laboratories, 2005).

Targets include Histamine H1 receptor (Homo sapiens, UniProt P35367); Histamine receptor H3 (Canis lupus familiaris, UniProt Q865E3); Hrh3 protein (Rattus norvegicus, UniProt Q5PPG3); Histamine H4 receptor (Homo sapiens, UniProt Q9H3N8); Histamine H2 receptor (Homo sapiens, UniProt P25021).
Assay [1] addresses Histamine H3 receptor (Homo sapiens, UniProt Q9Y5N1).
Assay [2] has as its target Histamine H3 receptor (Cavia porcellus, UniProt Q9JI35).

Where “and” joins values, the source holds several entries; their conditions need not be identical. Equal values may be shown once. Where only a bound is given, the exact number is not on record here.

Histamine H3 receptor (Homo sapiens, UniProt Q9Y5N1), sequence (Q9Y5N1 whole entry): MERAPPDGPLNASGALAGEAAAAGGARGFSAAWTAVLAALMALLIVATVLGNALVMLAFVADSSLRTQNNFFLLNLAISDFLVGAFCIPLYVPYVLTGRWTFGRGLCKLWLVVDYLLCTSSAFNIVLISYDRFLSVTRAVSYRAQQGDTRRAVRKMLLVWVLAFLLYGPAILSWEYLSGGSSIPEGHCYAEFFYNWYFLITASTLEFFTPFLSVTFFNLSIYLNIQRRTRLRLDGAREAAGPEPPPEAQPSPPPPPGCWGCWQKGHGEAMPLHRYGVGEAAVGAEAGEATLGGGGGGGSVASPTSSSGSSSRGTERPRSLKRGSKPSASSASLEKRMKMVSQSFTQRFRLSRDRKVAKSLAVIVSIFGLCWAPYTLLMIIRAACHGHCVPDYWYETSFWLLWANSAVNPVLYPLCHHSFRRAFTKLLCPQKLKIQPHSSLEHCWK
Hrh3 protein, sequence (Q5PPG3 whole entry): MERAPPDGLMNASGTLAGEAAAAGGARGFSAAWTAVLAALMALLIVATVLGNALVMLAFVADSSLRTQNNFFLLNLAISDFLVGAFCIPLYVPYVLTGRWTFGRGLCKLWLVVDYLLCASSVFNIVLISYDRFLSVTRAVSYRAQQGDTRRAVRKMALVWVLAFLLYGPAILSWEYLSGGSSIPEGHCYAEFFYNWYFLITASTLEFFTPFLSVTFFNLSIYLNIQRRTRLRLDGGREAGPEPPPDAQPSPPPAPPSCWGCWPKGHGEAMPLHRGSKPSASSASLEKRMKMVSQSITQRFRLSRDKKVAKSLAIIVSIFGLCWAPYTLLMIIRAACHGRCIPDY
Histamine receptor H3, sequence (Q865E3 whole entry): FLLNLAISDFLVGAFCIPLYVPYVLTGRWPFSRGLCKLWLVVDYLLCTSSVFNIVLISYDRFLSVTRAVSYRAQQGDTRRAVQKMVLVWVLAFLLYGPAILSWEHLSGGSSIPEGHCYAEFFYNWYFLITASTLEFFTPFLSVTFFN
Histamine H2 receptor, sequence (P25021 whole entry): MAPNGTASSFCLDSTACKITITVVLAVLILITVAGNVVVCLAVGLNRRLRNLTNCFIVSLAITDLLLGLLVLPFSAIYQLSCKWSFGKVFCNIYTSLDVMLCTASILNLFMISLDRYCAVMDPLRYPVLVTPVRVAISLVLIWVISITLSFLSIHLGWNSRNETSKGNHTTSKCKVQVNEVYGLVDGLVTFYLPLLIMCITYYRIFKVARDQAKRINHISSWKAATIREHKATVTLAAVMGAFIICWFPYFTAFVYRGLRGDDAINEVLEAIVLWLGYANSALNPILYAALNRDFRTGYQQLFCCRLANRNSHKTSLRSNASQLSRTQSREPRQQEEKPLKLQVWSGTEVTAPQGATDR
Histamine H4 receptor, sequence (Q9H3N8 whole entry): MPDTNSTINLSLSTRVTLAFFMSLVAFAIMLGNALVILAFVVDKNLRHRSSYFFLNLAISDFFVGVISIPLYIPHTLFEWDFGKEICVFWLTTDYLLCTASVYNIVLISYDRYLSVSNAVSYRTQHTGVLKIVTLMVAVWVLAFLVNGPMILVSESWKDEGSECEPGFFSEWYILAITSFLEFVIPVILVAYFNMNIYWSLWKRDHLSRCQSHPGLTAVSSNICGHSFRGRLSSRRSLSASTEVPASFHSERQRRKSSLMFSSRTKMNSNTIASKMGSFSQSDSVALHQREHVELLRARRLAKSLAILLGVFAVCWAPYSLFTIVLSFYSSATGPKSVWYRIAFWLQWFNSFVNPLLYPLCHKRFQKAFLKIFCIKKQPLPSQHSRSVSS
Histamine H3 receptor (Cavia porcellus, UniProt Q9JI35), sequence (Q9JI35 whole entry): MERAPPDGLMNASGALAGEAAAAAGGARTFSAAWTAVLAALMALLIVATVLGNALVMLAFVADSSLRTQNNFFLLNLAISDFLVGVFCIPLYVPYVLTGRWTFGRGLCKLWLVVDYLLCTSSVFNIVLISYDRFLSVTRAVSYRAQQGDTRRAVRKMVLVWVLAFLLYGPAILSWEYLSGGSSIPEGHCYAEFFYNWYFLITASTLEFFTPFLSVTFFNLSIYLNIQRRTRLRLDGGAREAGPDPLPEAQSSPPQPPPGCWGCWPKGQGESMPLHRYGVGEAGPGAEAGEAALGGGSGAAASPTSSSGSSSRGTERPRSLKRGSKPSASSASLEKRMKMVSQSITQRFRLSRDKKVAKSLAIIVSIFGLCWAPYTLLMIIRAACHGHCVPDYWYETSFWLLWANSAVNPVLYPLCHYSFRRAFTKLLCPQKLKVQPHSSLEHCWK
Histamine H1 receptor, sequence (P35367 whole entry): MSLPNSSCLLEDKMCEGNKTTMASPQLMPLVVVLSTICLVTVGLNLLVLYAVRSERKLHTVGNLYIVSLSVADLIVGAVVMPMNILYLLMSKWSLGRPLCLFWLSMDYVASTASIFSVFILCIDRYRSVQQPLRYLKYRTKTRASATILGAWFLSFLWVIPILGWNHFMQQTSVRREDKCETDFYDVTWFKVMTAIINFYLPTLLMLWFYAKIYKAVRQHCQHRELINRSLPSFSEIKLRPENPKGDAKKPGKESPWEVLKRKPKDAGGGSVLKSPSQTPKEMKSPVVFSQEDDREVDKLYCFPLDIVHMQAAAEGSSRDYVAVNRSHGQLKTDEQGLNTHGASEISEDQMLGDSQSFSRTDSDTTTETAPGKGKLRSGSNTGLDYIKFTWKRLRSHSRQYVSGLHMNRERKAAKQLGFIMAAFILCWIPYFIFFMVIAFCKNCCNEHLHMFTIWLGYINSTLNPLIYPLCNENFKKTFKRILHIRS

By Ki is commonly meant the equilibrium dissociation constant of an inhibitor or competing ligand from its target. High values mean a looser hold on the target, low ones a stronger hold on the target. For the compound `CC(C)(C)CCC#C[C@@H]1C[C@H]1c1c[nH]cn1`, the Ki at Histamine H1 receptor is > 10000 nM; on Histamine receptor H3 it was 1.32 nM; on Hrh3 protein, 0.11 nM and 0.25 nM; at Histamine H4 receptor, 51.3 nM; at Histamine H3 receptor [1] it was 5.25 nM and 12.3 nM; on Histamine H3 receptor [2], 0.63 nM. The Ki on Histamine H2 receptor was > 10000 nM.

For `C[C@@H]1CC[C@@H](C)N1CCCOc1ccc(-c2ccc(C(=O)N3CCOCC3)cc2)cc1` [(4'-(3-((2R,5R)-2,5-dimethylpyrrolidin-1-yl)propoxy)biphenyl-4-yl)(morpholino)methanone], the inhibitory constant (Ki) is 1.2 nM on Histamine receptor H3; 1.66 nM and 1.45 nM at Hrh3 protein; > 10000 nM on Histamine H4 receptor; 0.41 nM and 0.43 nM on Histamine H3 receptor [1]; 0.55 nM at Histamine H3 receptor [2]; > 10000 nM on Histamine H2 receptor.

`C[C@@H]1CCCN1CCc1cc2cc(-c3ccc(C#N)cc3)ccc2o1` [(R)-4-(2-(2-(2-methylpyrrolidin-1-yl)ethyl)benzofuran-5-yl)benzonitrile]: the Ki at Histamine H1 receptor is 1620 nM; on Histamine receptor H3, 3.89 nM; at Hrh3 protein, 1.23 nM and 3.24 nM; at Histamine H4 receptor it was > 10000 nM; at Histamine H2 receptor it was 6760 nM.
